Legend:
[1] = tested on: OsWRKY45; details: rice; cited from earlier work
[2] = tested on: innate immunity in tobacco plant; experiment: Innate immunity gene expression (PR1a, PR1b) in tobacco seedlings after cryptogein; assay type: in vivo, Nicotiana tabacum; details: 6 days on compound, cryptogein 2000 nM, 0, 1 and 24 h (FIG. 4)
Description: (§1) Total RNA was isolated from plant cells using Trizol (Invitrogen, Carlsbad, Calif., USA) reagent in accordance with the manufacturer's protocol and quantified using a spectrophotometer. First-strand cDNA was synthesized from 3 μg total RNA with an oligo-dT primer and reverse transcriptase.
(§2) Real-time PCR was performed using an ABI PRISM 7300 sequence detection system (Applied Biosystems, Foster City, Calif., USA) with SYBR Green real-time PCR Master Mix (TOYOBO, Osaka, Japan) and the gene-specific primers. PCR amplification was performed with an initial denaturation at 95° C. for 10 min followed by 40 cycles of incubations at 95° C. for 15 s, 60° C. for 15 s, and 72° C. for 45 s. Relative mRNA abundances were calculated using the comparative Ct method. Actin or tubulin was used as an internal control. The following primers were used in the experiment.
Tobacco seedlings were grown on MS plate for 7 days and then the seedlings were transferred to MS plates containing chemical compounds. After grown for 6 days, cryptogein (2000 nM) was added to the medium and the samples for RNA extraction were collected at the indicated time (0, 1 and 24 h).

[3] = tested on: salicylic acid-dependent defense pathway and jasmonic acid-dependent defense pathway; experiment: Defense gene expression (PR1, PDF1.2) in Arabidopsis seedlings, real-time RT-PCR; assay type: in vivo, Arabidopsis thaliana; details: Arabidopsis seedlings on MS plates containing compound for 3 or 6 days (FIG. 2)
Description: as §1, §2
Arabidopsis seedlings were grown on MS plate for 12 days and then the seedlings were transferred to MS plates containing chemical compounds. After grown for 3 or 6 days, the samples for RNA extraction were collected.

[4] = tested on: Pseudomonas syringae pv tomato (Pst) DC3000; experiment: Pathogen infection assay in Arabidopsis thaliana (Col-0); assay type: in vivo; details: Arabidopsis thaliana (Col-0) irrigated with compound for 5 days, dip inoculation with Pst DC3000, 3 days (FIG. 3)
Description: Arabidopsis thaliana (Col-0) were grown in sterilized potting soil (Kureha) in plastic pots (5 cm×5 cm×5 cm) inside a growth chamber under a 16 h-8 h light-dark regimen at 22° C. with 60% humidity. After grown for 3 weeks, plants were irrigated with chemical compounds for 5 days.
Pseudomonas syringae pv tomato (Pst) DC3000 was cultured in nutrient broth medium (Eiken Chemical) for 24 h at 28° C., and a bacterial suspension was prepared in 10 mM MgCl2 (2×10^5 colony-forming units per mL). Challenge inoculation was performed by dipping the plants in bacterial solution. After incubation for 3 days at 22° C., the leaves were harvested from the inoculated plants. Three to four leaves from different plants were combined, weighed, and then homogenized in 10 mM MgCl2; the homogenate was then plated on nutrient broth agar containing rifampicin (50 mg/L) at appropriate dilutions. After incubation for 2 days at 28° C., the number of rifampicin-resistant bacterial colonies was counted. More than six homogenized samples were prepared for each experiment.

[5] = tested on: innate immunity in rice; experiment: Innate immunity gene expression (PBZ1, WRKY45) in rice seedlings after N-acetylchitoheptaose; assay type: in vivo, Oryza sativa; details: 2 days on compound, [GlcNAc]7 10 μM, observed 24 hours after elicitor (FIG. 5)
[6] = tested on: tobacco leaves; experiment: Salicylic acid accumulation in tobacco leaves after cryptogein; assay type: in vivo; details: tobacco leaves treated with 2,000 nM cryptogein; range from several thousand, varying with conditions
Description: In the case of tobacco BY-2 cells compared to normal tobacco plant, the salicylic acid accumulation level of untreated tobacco BY-2 cells is from 10 to 20 ng/g (fresh weight), while the salicylic acid accumulation level of untreated tobacco leaves is several hundred ng/g (fresh weight). When treated with 2,000 nM cryptogein, the salicylic acid accumulation level of treated tobacco BY-2 cells increases to a level of approximately from 100 to 150 ng/g (fresh weight), while the salicylic acid accumulation level of treated tobacco leaves increases to, though varying depending on conditions, a level in the range of from several thousand ng/g (fresh weight) to 10,000 ng/g (fresh weight).

Row | Molecule | enhancement of immune response after treatment with cryptogein [2] | activation of salicylic acid-dependent and jasmonic acid-dependent defense pathways [3] | also measured
1 | c1ccc2snnc2c1 [BTH, benzothiadiazole] |  |  | time to upregulation of OsWRKY45 after treatment [1]: ≤ 3 h
2 | O=c1cc(N2CCNCC2)oc2c(-c3ccccc3)cccc12 [Compound 2, LY303511] | enhanced an immune response | activated both the salicylic acid-dependent defense pathway and the jasmonic acid-dependent defense pathway | 
3 | Cn1cnc(=N)c2nc[nH]c21 [Compound 3, 3MA] | enhanced an immune response | activated both the salicylic acid-dependent defense pathway and the jasmonic acid-dependent defense pathway | resistance to a plant disease [4]: effective in enhancing resistance to a plant disease; enhancement of immune response after elicitor application [5]: enhanced an immune response
4 | cryptogein (protein, UniProt P15570 21-118, looked up, an elicitin derived from oomycete, Phytophthora cryptogea; trigger material (elicitor)) Beta-elicitin cryptogein: TACTATQQTAAYKTLVSILSDASFNQCSTDSGYSMLTAKALPTTAQYKLMCASTACNTMIKKIVTLNPPNCDLTVPTSGLVLNVYSYANGFSNKCSSL |  |  | salicylic acid accumulation level [6]: ≤ 10,000 ng/g (fresh weight)
